From publication PMC11062922 (Nature Chemical Biology, 2023)

Tests used:
ACOX1 = biological target: T1, ACOX1 (Homo sapiens, UniProt Q15067); test: Kinobeads two-dose competition binding: ACOX1; details: sheet CATDS matrix 2; Gene Name ACOX1;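 note: competition of compounds with immobilized broad-spectrum kinase inhibitor beads in cell lysate at 100 and 1,000 nM, 45 min at 4 °C, bead-bound protein quantified by label-free MS versus DMSO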
T1 construct: endogenous in cells
T1 sequence (Q15067 1-660): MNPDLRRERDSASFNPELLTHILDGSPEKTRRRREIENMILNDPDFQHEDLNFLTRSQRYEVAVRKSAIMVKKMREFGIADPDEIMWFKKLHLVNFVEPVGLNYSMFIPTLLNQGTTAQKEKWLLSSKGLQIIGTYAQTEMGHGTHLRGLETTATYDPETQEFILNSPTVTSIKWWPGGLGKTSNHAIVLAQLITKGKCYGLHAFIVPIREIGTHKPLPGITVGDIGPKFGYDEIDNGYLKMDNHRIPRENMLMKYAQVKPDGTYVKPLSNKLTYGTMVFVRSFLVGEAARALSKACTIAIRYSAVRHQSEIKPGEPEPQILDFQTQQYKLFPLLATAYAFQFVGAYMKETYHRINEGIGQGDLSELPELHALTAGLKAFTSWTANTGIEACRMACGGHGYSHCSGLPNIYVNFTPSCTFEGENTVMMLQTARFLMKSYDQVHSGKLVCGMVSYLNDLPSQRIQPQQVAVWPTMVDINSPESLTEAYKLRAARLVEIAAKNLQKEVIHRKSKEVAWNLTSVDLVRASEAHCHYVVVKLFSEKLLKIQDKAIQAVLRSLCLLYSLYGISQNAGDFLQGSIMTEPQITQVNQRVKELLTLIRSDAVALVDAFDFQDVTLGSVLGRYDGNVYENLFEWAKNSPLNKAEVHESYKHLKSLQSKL

AAK1 = biological target: T2, AAK1 (Homo sapiens, UniProt Q2M2I8); test: Kinobeads two-dose competition binding: AAK1; details: for potency estimated from few doses: sheet "Kinobeads Drugmatrix - all", unit inferred, same values below 1000 recur in sheet "nanomolar", read-out: Kinobeads Drugmatrix - all: apparent Kd, AAK1; for CATDS: sheet CATDS matrix 2, Gene Name AAK1;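 for all read-outs here: kinobeads competition pulldown from cell lysate, compound preincubated 45 min at 4 °C, bead-bound protein measured by label-free mass spectrometry against DMSO vehicle control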
T2 construct: to maximize the representation of endogenous proteins; endogenous in cells
T2 sequence (Q2M2I8 whole entry): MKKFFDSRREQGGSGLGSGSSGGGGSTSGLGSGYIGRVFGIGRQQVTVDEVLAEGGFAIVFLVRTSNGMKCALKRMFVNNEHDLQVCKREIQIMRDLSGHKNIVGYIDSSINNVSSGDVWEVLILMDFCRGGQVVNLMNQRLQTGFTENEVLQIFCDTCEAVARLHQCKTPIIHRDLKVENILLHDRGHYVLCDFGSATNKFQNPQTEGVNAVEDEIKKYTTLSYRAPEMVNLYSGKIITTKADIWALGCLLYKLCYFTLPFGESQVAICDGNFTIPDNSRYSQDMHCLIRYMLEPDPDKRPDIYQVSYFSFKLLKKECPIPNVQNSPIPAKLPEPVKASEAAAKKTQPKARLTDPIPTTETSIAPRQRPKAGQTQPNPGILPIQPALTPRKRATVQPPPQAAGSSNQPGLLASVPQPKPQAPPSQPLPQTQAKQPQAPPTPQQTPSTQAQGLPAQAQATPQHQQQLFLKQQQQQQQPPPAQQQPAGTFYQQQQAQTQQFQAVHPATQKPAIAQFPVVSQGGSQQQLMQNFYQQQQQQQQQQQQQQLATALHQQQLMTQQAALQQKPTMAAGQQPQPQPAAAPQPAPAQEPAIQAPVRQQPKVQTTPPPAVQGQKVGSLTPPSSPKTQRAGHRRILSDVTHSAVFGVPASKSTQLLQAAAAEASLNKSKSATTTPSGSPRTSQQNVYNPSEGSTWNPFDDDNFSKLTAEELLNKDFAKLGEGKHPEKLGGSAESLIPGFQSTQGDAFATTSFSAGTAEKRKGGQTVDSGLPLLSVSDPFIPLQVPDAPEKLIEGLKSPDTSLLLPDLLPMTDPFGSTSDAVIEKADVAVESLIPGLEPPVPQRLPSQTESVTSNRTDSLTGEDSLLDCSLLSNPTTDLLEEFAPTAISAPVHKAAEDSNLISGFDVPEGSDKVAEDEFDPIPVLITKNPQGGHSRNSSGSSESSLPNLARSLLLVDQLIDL

ABL1 = ABL1 (Homo sapiens, UniProt P00519); test: Kinobeads two-dose competition binding: ABL1; details: sheet CATDS matrix 2; Gene Name ABL1
ABL1, sequence (P00519 28-1130 limits assumed): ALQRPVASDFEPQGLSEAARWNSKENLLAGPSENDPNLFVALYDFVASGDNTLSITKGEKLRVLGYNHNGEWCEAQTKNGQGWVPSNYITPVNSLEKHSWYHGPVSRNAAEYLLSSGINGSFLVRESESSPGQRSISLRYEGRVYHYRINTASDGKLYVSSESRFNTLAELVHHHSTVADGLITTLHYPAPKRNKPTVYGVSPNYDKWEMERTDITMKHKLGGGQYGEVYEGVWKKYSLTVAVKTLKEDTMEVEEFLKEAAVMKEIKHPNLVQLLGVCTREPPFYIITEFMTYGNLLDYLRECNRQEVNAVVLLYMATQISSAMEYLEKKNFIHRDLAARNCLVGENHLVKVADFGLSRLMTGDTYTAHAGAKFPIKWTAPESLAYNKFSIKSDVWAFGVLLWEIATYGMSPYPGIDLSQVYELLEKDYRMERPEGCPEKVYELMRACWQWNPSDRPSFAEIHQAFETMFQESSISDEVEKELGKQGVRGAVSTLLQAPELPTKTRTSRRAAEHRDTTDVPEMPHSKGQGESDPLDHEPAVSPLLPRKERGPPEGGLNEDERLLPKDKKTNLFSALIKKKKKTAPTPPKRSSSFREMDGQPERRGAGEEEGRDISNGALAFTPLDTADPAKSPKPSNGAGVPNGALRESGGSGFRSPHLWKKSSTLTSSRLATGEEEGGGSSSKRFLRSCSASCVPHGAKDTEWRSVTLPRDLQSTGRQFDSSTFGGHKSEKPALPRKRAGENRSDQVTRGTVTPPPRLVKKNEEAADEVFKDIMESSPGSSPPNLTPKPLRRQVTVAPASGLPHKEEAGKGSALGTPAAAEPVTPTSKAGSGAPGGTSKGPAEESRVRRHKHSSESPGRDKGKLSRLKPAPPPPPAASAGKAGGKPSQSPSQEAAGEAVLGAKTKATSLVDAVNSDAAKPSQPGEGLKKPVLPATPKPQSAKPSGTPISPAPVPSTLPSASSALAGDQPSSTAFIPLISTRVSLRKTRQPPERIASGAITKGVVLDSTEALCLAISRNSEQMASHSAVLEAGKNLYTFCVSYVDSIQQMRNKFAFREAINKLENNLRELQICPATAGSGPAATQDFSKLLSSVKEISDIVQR

ABL2 = biological target: T3, ABL2 (Homo sapiens, UniProt P42684); test: Kinobeads two-dose competition binding: ABL2; details: sheet CATDS matrix 2; Gene Name ABL2
T3 construct: endogenous in cells
T3 sequence (P42684 whole entry): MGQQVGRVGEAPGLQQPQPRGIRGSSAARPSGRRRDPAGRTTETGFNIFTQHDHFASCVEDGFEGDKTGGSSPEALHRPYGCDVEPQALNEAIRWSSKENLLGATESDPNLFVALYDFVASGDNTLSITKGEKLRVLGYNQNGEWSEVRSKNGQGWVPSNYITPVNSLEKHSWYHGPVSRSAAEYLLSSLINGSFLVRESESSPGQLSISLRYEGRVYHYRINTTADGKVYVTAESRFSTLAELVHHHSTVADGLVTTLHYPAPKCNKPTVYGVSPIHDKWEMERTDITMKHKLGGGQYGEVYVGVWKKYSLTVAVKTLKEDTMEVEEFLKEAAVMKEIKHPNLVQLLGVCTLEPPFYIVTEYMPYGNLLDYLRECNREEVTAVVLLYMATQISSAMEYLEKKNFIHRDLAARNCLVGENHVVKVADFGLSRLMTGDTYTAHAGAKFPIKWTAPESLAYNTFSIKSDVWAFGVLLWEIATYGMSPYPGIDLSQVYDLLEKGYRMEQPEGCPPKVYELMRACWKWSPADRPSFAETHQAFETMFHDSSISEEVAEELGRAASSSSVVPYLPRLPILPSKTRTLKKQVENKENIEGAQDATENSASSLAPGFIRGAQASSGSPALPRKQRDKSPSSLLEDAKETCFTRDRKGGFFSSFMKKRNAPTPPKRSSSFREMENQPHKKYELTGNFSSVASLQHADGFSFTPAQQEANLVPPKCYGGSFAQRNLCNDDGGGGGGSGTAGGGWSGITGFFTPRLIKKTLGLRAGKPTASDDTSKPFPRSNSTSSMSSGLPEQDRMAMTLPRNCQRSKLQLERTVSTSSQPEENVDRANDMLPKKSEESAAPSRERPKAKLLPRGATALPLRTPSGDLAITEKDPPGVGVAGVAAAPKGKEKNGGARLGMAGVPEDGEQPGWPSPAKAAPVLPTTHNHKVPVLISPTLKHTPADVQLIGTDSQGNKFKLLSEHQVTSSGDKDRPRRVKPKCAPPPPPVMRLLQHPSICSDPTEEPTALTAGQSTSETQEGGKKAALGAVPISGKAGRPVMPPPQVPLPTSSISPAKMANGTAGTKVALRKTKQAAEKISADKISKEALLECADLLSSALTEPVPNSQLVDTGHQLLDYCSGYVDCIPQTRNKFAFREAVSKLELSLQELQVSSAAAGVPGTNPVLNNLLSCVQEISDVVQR

ACAD11 = biological target: T4, ACAD11 (Homo sapiens, UniProt Q709F0); test: Kinobeads two-dose competition binding: ACAD11; details: sheet CATDS matrix 2; Gene Name ACAD11
T4 construct: endogenous in cells
T4 sequence (Q709F0 1-780): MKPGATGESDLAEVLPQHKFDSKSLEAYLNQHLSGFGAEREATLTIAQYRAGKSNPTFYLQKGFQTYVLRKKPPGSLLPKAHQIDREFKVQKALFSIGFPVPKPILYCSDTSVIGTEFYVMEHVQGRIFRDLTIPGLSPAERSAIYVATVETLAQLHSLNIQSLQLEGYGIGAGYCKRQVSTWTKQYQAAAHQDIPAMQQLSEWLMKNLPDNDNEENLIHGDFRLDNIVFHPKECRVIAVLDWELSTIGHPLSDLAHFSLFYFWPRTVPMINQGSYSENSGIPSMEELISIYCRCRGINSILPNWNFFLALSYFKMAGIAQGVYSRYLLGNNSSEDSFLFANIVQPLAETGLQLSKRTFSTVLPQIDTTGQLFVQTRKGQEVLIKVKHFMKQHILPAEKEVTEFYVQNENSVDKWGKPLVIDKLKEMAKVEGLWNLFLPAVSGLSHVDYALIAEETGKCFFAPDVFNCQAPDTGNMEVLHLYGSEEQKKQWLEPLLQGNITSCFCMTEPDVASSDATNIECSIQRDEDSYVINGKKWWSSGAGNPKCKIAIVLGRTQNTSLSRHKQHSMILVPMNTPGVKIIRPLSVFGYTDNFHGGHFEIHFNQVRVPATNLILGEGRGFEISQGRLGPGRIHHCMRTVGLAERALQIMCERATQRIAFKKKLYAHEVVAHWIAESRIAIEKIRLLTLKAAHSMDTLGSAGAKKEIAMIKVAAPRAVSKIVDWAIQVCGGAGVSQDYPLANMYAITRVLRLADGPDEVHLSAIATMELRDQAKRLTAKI

| CATDS (ACOX1) | potency estimated from few doses (AAK1) | CATDS (AAK1) | CATDS (ABL1) | CATDS (ABL2) | CATDS (ACAD11) | Structure (SMILES) |
| --- | --- | --- | --- | --- | --- | --- |
| 0 | 79.6 nM | 0.03638 | 0 | 0 | 0 | NCC(NC(=O)c1cc(-c2ccnc3[nH]ccc23)cs1)c1ccccc1 (stereo not shown) [GSK1229959A] |
| 0 | – | 0 | 0 | 0 | 0 | Cc1ccc(C)c(NC(=O)NC2CCN(c3ccnc(Nc4ccc(F)cc4)n3)C2)c1 (stereo not shown) [GSK1379720A] |
| 0 | – | 0.05355 | 0 | 0 | 0 | Nc1nc(-c2ccc3c(N)n[nH]c3c2)cc(N2CCCC(NC(=O)c3ccccc3)C2)n1 (stereo not shown) [GSK2286775B] |
| 0 | – | 0 | 0 | 0 | 0 | Cc1ccc(NC(=O)c2cccc(N3CCCCC3)c2)cc1-c1ccc(C(=O)NCC2CC2)cc1 [GSK1917008A] |
| 0 | – | 0 | 0 | 0 | 0 | O=c1cc(N2CCOCC2)nc2n(Cc3cccc(Cl)c3)ccn12 [GSK2296823A] |
| 0 | – | 0 | 0 | 0 | 0 | COc1cc2nccc(Oc3ccc(NC(=O)C4(C(=O)Nc5ccc(F)cc5)CC4)cc3)c2cc1OC [Cabozantinib, reference compound] |
| 0 | – | 0 | 0 | 0 | 0 | COc1cc(C)c(NC(=O)CN(C)C)cc1Nc1nc(Nc2cccc(F)c2C(N)=O)c2cc[nH]c2n1 [GSK2213727A] |
| 0 | > 1000 nM | 0 | 0 | 0 | 0 | CCCc1cc(N2CCCN(C)CC2)nc2sc3c(N)ncnc3c12 [BI00604564] |
| 0 | – | 0 | 0 | 0 | 0 | COc1cc(N2CCN(C(C)C)CC2)ccc1Nc1nc(Nc2ccc(F)cc2C(=O)NC[C@@H](O)CO)c2cc[nH]c2n1 [GSK1392956A] |
| 0 | – | 0 | 0 | 0 | 0 | COc1cc2ncn(-c3cc(OCC4CCCCC4)c(C(N)=O)s3)c2cc1OC [GSK204559A] |
| 0 | – | 0 | 0 | 0 | 0 | Cc1c(Cn2ccn3c(=O)nc(N4CCOCC4)cc23)cccc1C(F)(F)F [GSK2336394A] |
| 0 | – | 0 | 0 | 0 | 0 | Nc1ncc(-c2ccc3nccc(-c4ccncc4)c3c2)cc1S(=O)(=O)N1CCOCC1 [GSK1627798A] |
| 0 | – | 0 | 0 | 0 | 0 | Cc1cn2c(=O)cc(N3CCOCC3)nc2n1Cc1cccc(Cl)c1Cl [GSK2334006A] |
| 0 | – | 0 | 0 | 0 | 0 | O=c1cc(N2CCOCC2)nc2n(Cc3cccc(F)c3)ccn12 [GSK2297430A] |
| 0 | – | 0.01281 | 0.0136 | 0.02269 | 0.01477 | Cc1ccc(NC(=O)Nc2ccccc2F)cc1-c1ccc(C(=O)Nc2ccncc2)cc1 [GSK1398477_KCGS] |
| 0 | > 1000 nM | 0 | 0 | 0 | 0 | COc1ccc(Nc2nccc(NCCNC(=O)Nc3cc(C)ccc3C)n2)cc1 [GSK1379899A] |
| 0 | – | 0.1964 | 0 | 0 | 0 | Nc1nc(-c2ccc3c(N)n[nH]c3c2)cc(N2CCCCC2)n1 [GSK2228768A] |
| 0 | – | 0 | 0 | 0 | 0 | O=C(Nc1cccc(-c2nn3ncccc3c2-c2ccnc(Nc3ccccc3)n2)c1)c1c(F)cccc1F [GSK198271A] |
| 0 | – | 0 | 0 | 0 | 0 | CCCN1CCC(Oc2cc(Nc3nc(Nc4cccc(F)c4C(N)=O)c4cc[nH]c4n3)c(OC)cc2Cl)CC1 [GSK1713088A] |
| 0 | – | 0 | 0 | 0 | 0 | CNc1nc(-c2ccc3c(N)n[nH]c3c2)cc(N2C[C@@H](C(=O)Nc3ccccc3)CC[C@H]2C)n1 [GSK2298859A] |
| 0 | – | 0 | 0 | 0 | 0 | Cc1ccccc1Cn1ccn2c(=O)cc(N3CCOCC3)nc12 [GSK2269905A] |
| 0 | – | 0 | 0 | 0 | 0 | COc1ccc2nc(-c3cccc(C)n3)nc(Nc3ccncc3)c2c1 [GSK204919_KCGS] |
| 0 | – | 0 | 0 | 0 | 0 | NCCC(NC(=O)c1cc(Br)c(-c2ccnc3[nH]ccc23)s1)c1ccccc1 (stereo not shown) [GSK1307810A] |
| 0 | – | 0 | 0 | 0 | 0 | Cc1ccc(-n2nc(C(C)(C)C)cc2NC(=O)Nc2ccc(OCCN3CCOCC3)cc2)cc1 [BIRB0876BS] |
| 0 | – | 0 | 0 | 0 | 0 | CC(C)C(=O)N[C@@H]1CCN(C(=O)Nc2nc3c(s2)-c2nc(-c4ccccc4Cl)ncc2CC3)C1 [BI00047804] |
| 0 | – | 0 | 0 | 0 | 0 | NC(=O)c1cccnc1COc1cc(-c2ccc(N3CCOCC3)nc2)cc2ncccc12 [BI01125081] |
| 0 | – | 0 | 0 | 0 | 0 | O=C(c1ccc(F)c(F)c1Nc1ccc(I)cc1F)N1CC(O)([C@@H]2CCCCN2)C1 [Cobimetinib, reference compound] |
| 0 | 820 nM | 0.2016 | 0 | 0 | 0 | NCC(NCc1ccc(-c2ccnc3[nH]ccc23)s1)c1ccccc1 (stereo not shown) [GSK1321565A] |
| 0 | 786 nM | 0.2095 | 0 | 0 | 0 | COc1cc(Nc2nccc(N3CCC(NC(=O)c4cccc(C#N)c4)C3)n2)cc(OC)c1OC (stereo not shown) [GSK1379751A] |

| Structure (SMILES) | CATDS (ACOX1) | potency estimated from few doses (AAK1) | CATDS (AAK1) | CATDS (ABL1) | CATDS (ABL2) | CATDS (ACAD11) |
| --- | --- | --- | --- | --- | --- | --- |
| COc1ccc2ncnc(Nc3ccc(OCc4ccccc4)cc3)c2c1 [GI261520A] | 0 | – | 0 | 0 | 0 | 0 |
| O=c1cc(N2CCOCC2)nc2n(Cc3cccc(Cl)c3Cl)ccn12 [GSK2286295A] | 0 | – | 0 | 0 | 0 | 0 |
